Read-outs that look alike come from different tables or passages of the source. A value given as a limit tells only on which side of the number the result lay.

Here are results for 19 compounds from patent US11299487B2, “Compounds and compositions as modulators of TLR signaling” (Neuropore Therapies, Inc., priority 2019, dated 2022).

What all share (assay type): cell-based
The target of test [1] is T1, human TLR2 (Homo sapiens, UniProt O60603).
T1 construct: host or cells: HEK-Blue hTLR2 (HEK-293)
Description: HEK-Blue hTLR2 antagonism assay (SEAP reporter) with agonist Pam2CSK4 (TLR2/6 agonist). Conditions: HEK-Blue hTLR2 cells, ~3×EC50 Pam2CSK4, 18 h, SEAP OD 655 nm, 8-point dilutions.

The target in test [2] is T1, human TLR2. Description: HEK-Blue hTLR2 antagonism assay (SEAP reporter) with agonist Pam3CSK4 (TLR1/2 agonist). Conditions: HEK-Blue hTLR2 cells, ~3×EC50 Pam3CSK4, 18 h, SEAP OD 655 nm, 8-point dilutions.
A further test concerns the target T2, human TLR9 (Homo sapiens, UniProt Q9NR96).
T2 construct: host or cells: HEK-Blue hTLR9 (HEK-293)
T2 sequence (Q9NR96 26-1032): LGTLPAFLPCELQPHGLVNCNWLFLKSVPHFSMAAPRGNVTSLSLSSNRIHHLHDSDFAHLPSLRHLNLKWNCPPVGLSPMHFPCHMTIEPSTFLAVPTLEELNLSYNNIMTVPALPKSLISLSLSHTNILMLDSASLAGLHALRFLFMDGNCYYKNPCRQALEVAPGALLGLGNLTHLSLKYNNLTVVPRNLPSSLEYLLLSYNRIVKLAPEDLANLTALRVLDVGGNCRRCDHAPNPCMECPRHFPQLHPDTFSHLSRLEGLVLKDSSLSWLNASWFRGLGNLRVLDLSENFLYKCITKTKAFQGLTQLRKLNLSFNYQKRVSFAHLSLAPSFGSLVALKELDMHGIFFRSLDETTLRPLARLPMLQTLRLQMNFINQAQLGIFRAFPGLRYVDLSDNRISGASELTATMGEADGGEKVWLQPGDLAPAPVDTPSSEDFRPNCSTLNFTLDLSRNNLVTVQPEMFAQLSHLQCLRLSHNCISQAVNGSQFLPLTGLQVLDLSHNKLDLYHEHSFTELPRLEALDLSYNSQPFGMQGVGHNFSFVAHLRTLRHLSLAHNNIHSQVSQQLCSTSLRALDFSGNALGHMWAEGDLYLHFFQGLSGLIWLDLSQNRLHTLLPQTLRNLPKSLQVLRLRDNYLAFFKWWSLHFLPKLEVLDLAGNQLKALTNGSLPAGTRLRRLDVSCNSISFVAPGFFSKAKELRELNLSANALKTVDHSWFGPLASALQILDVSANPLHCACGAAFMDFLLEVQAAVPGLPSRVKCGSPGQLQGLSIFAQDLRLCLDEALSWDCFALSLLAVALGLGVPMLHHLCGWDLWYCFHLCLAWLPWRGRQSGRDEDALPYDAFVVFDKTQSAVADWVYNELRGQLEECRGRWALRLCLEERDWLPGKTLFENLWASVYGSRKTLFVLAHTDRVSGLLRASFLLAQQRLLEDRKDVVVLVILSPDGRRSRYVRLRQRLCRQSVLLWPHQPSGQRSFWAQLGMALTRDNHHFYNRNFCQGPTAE
Description: HEK-Blue hTLR9 assay (SEAP reporter) with agonist ODN 2006. Conditions: HEK-Blue hTLR9 cells, ~3×EC50 ODN 2006, 18 h, exact values 8-point dilutions, approximate (~ or <) 4-point dilutions, read-out: ~IC50 (μM) with ODN2006. Here is the method: Synthetic ODNs (ODN 2006 (ODN7909), class B CpG oligonucleotide, TLR9 agonist) was obtained from InvivoGen and was dissolved in endotoxin-free water to a concentration 500 μM, vortexed until complete solubilization, and stored in aliquots at −20° C. Prior to addition to cells, an aliquot of the dissolved ligand was vortexed shortly and then was diluted in medium to 50 μM. The EC50 of the agonist for each assay run was determined by using 3-fold dilutions from the starting concentration 10 μM.
Test compounds were solubilized fresh to 10-20 mM stocks in DMSO and sonicated for 5-10 minutes in a water bath sonicator. Serial dilutions were prepared in DMSO, and then diluted in medium. The final concentration of DMSO used in the assay was 1%.
HEK-Blue hTLR9 reporter cells (InvivoGen) are HEK-293 cells stably expressing both the human TLR9 gene and a secreted embryonic alkaline phosphatase (SEAP) reporter construct downstream of NFκB promotor sites. HEK-Blue hTLR9 cells were cultured according to manufacturer's protocol using Dulbecco's Modified Eagle Medium (DMEM; Gibco) containing 1× GlutaMax (Gibco), 10% heat-inactivated Fetal Bovine Serum (Gibco), Pen-Strep (50 U/mL penicillin, 50 μg/mL streptomycin, Gibco), 100 μg/mL Normocin (InvivoGen), and the selective antibiotics, 10 μg/mL Blasticidin (InvivoGen), and 100 μg/mL Zeocin (InvivoGen). Quanti-Blue reagent (InvivoGen) for detection and quantification of secreted alkaline phosphatase was dissolved in 100 mL of endotoxin-free water, warmed to 37° C. for 30 minutes and then filtered using a 0.2 μm membrane.
On day 1, 50 μL of each test compound dilution in duplicates or a vehicle control was added to each well of a 96-well plate followed by addition of 150 μL of HEK-Blue hTLR9 cell suspension (1×10^5 cells/well) and incubated at 37° C./5% CO2 for 2 h. Next, 50 μL of an approximate 3×EC50 concentration of TLR9 agonist, ODN 2006, was added to the wells containing test compounds or the vehicle control. The plates were then incubated at 37° C./5% CO2 for 18 h. For each assay run, vehicle-treated HEK-Blue hTLR9 cells were treated with serial dilutions of agonist to determine EC50 values for the respective run.
On day 2, secreted alkaline phosphatase (SEAP) activity was detected in cell culture supernatants. In brief, 30 μL was collected from each well and transferred to a 96-well plate. Next, 200 μL of Quanti-Blue detection reagent was added to each well. Plates were incubated at 37° C. for 60 min. and SEAP activity was assessed by spectrophotometer OD reading at 655 nm. Table A and Table B show the activities of the compounds tested in HEK-Blue hTLR9 cells against ODN 2006. The activities of the compounds against ODN 2006 are presented as IC50 values which were defined as concentrations of the compounds where percent inhibition of the signal induced by agonist is equal to 50. Exact IC50 values were calculated based on 8-point dilutions for each compound. Approximate IC50 values (˜ or <) were calculated based on 4-point dilutions for each compound.

T1 sequence (O60603 21-784): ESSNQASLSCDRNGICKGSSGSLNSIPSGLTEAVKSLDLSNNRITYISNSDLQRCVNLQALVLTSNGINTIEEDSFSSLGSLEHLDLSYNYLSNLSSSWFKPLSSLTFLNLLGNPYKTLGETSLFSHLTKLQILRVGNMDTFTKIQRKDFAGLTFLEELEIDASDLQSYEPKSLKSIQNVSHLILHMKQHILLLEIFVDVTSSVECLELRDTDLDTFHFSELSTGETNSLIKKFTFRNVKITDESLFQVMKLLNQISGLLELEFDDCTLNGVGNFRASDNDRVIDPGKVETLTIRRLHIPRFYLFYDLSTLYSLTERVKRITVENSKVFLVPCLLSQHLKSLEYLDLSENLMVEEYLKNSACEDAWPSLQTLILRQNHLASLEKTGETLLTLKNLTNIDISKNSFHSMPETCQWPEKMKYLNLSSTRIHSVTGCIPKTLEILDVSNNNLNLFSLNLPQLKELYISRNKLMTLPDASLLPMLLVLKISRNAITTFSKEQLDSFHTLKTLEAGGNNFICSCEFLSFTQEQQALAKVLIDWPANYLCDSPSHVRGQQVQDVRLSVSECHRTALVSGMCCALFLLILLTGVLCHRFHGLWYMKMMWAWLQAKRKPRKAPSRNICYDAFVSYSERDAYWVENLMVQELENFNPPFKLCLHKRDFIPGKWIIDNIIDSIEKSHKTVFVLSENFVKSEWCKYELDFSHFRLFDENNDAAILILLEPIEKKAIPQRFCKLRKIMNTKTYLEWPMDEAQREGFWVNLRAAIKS

Regarding `O=Cc1cc(-c2csc(-c3ccc(N4CCCC4)cc3)c2)cc(F)c1O` [Compound A52, 3-fluoro-2-hydroxy-5-(5-(4-(pyrrolidin-1-yl)phenyl)thiophen-3-yl)benzaldehyde], the values for the IC50 on human TLR2 [1] (Table A), on human TLR2 [2] (Table A) and at human TLR9 (Table A) were 0.7 µM, 0.2 µM and less than 1.2 µM, respectively.
On to `O=Cc1cc(-c2cnc(-c3ccc(N4CCCC4)cc3)s2)cc(F)c1O` [Compound A55, 3-fluoro-2-hydroxy-5-(2-(4-(pyrrolidin-1-yl)phenyl)thiazol-5-yl)benzaldehyde], for which the IC50 (in general, the concentration at which inhibition is half-maximal) on human TLR2 [1] (Table A) was 0.6 µM; on human TLR2 [2] (Table A), 0.4 µM; at human TLR9 (Table A), 0.2 µM.
The corresponding values for `O=Cc1cc(-c2csc(-c3ccc(N4CCCC4)cc3)n2)cc(F)c1O` [Compound A57, 3-fluoro-2-hydroxy-5-(2-(4-(pyrrolidin-1-yl)phenyl)thiazol-4-yl)benzaldehyde] are 1 µM, 0.3 µM and 0.3 µM.
The corresponding values for `O=Cc1cc(-c2nsc(-c3ccc(N4CCCC4)cc3)n2)cc(F)c1O` [Compound A61, 3-fluoro-2-hydroxy-5-(5-(4-(pyrrolidin-1-yl)phenyl)-1,2,4-thiadiazol-3-yl)benzaldehyde] are 3.2 µM, 1 µM and less than 1.2 µM.
Turning to `O=Cc1cc(-c2nc(-c3ccc(N4CCCC4)cc3)ns2)cc(F)c1O` [Compound A62, 3-fluoro-2-hydroxy-5-(3-(4-(pyrrolidin-1-yl)phenyl)-1,2,4-thiadiazol-5-yl)benzaldehyde], the IC50 was determined as 0.7 µM at human TLR2 [1] (Table A), 0.4 µM on human TLR2 [2] (Table A) and 0.2 µM on human TLR9 (Table A).
Taken in the same sequence, the figures for `O=Cc1cc(-c2cnc(-c3ccccc3)o2)cc(F)c1O` [Compound A88, 3-fluoro-2-hydroxy-5-(2-phenyloxazol-5-yl)benzaldehyde] were 2.1 µM, 1.3 µM and roughly 3 µM.
The corresponding values for `O=Cc1cc(-c2cnc(-c3ccccc3)s2)cc(F)c1O` [Compound A91, 3-fluoro-2-hydroxy-5-(2-phenylthiazol-5-yl)benzaldehyde] are 3.8 µM, 2.1 µM and less than 1.2 µM.
As for `O=Cc1cc(-c2nc(-c3ccccc3)cs2)cc(F)c1O` [Compound A93, 3-fluoro-2-hydroxy-5-(4-phenylthiazol-2-yl)benzaldehyde], the IC50 on human TLR2 [1] (Table A) was 4.8 µM; on human TLR2 [2] (Table A) it was 2.1 µM; at human TLR9 (Table A), less than 1.2 µM.
On to `O=Cc1cc(-c2nnc(-c3ccccc3)s2)cc(F)c1O` [Compound A94, 3-fluoro-2-hydroxy-5-(5-phenyl-1,3,4-thiadiazol-2-yl)benzaldehyde], for which the IC50 at human TLR2 [1] (Table A) was 14.8 µM; at human TLR2 [2] (Table A) it was 9.2 µM; on human TLR9 (Table A), less than 1.2 µM.
Taken in the same sequence, the figures for `O=Cc1cc(-c2nc(-c3ccccc3)ns2)cc(F)c1O` [Compound A95, 3-fluoro-2-hydroxy-5-(3-phenyl-1,2,4-thiadiazol-5-yl)benzaldehyde] were 3 µM, 2.3 µM and roughly 1.4 µM.
Taken in the same sequence, the figures for `O=Cc1cc(-c2nc(-c3ccccc3)n[nH]2)cc(F)c1O` [Compound A96, 3-fluoro-2-hydroxy-5-(3-phenyl-1H-1,2,4-triazol-5-yl)benzaldehyde] were 12.1 µM, 8.8 µM and roughly 6.3 µM.
Take `O=Cc1cc(C#Cc2ccc(N3CCCC3)cc2)cc(F)c1O` [Compound B1, 3-fluoro-2-hydroxy-5-((4-(pyrrolidin-1-yl)phenyl)ethynyl)benzaldehyde]: the IC50 is 1.1 µM on human TLR2 [1] (Table B), 0.7 µM at human TLR2 [2] (Table B) and less than 1.2 µM at human TLR9 (Table B).
The corresponding values for `O=Cc1cc(C#Cc2ccc(N3CCOCC3)cc2)cc(F)c1O` [Compound B3, 3-fluoro-2-hydroxy-5-((4-morpholinophenyl)ethynyl)benzaldehyde] are 3.7 µM, 2.2 µM and less than 1.2 µM.
The corresponding values for `O=Cc1c(O)cc(C#Cc2ccc(N3CCCC3)cc2)cc1F` [Compound B4, 2-fluoro-6-hydroxy-4-((4-(pyrrolidin-1-yl)phenyl)ethynyl)benzaldehyde] are 6.3 µM, 2.7 µM and roughly 1.5 µM.
Taken in the same sequence, the figures for `COc1cc(C#Cc2ccc(N3CCCC3)cc2)cc(O)c1C=O` [Compound B7, 2-hydroxy-6-methoxy-4-((4-(pyrrolidin-1-yl)phenyl)ethynyl)benzaldehyde] were 35.7 µM, 20.8 µM and greater than 33 µM.
For `O=Cc1cc(C(=O)Nc2ccccc2)cc(F)c1O` [Compound B11, 3-fluoro-5-formyl-4-hydroxy-N-phenylbenzamide], the IC50 on human TLR2 [1] (Table B) was 12 µM; on human TLR2 [2] (Table B), 10.6 µM; on human TLR9 (Table B) it was less than 1.2 µM.
Taken in the same sequence, the figures for `O=Cc1cc(C(=O)Nc2ccc(N3CCCC3)cc2)cc(F)c1O` [Compound B12, 3-fluoro-5-formyl-4-hydroxy-N-(4-(pyrrolidin-1-yl)phenyl)benzamide] were 2.7 µM, 2 µM and 0.7 µM.
The corresponding values for `O=Cc1cc(C(=O)Nc2ccc(C(F)(F)F)c(Cl)c2)cc(F)c1O` [Compound B14, N-(3-Chloro-4-(trifluoromethyl)phenyl)-3-fluoro-5-formyl-4-hydroxybenzamide] are 1.3 µM, 1.5 µM and greater than 33 µM.
For the compound `O=Cc1cc(S(=O)(=O)Nc2ccc(N3CCCC3)cc2)cc(F)c1O` [Compound B17, 3-fluoro-5-formyl-4-hydroxy-N-(4-(pyrrolidin-1-yl)phenyl)benzenesulfonamide], the IC50 is 12.7 µM on human TLR2 [1] (Table B), 6.6 µM on human TLR2 [2] (Table B) and roughly 2.9 µM at human TLR9 (Table B).
